# Patent US11203757B2, “Use of Rad18 inhibitors in the treatment of tumors” (Centre National De La Recherche Scientifique, priority 2014, dated 2021)
# Tests used:
# Assay type in all cases: cell-based
# [1] = tested on: U87-MG glioblastoma cells; assay: CellTiter-Glo cell viability of U87-MG cells treated with P2207; conditions: indicated doses of P2207, 48 h post-treatment, FIG. 7
# Description: FIG. 7. […] Survival curves of U87-MG glioblastoma cells treated with the indicated doses of the USP7 inhibitor P2207 (Sigma-Aldrich), or DMSO as a control. Means and standard deviations are shown (n=3). Cell viability is expressed as percent (%) of viability compared to the control (DMSO).
# Cells were plated at 1.0×10^4 cells/well in 12-well plates and exposed to the indicated amount of P2207 inhibitor (Sigma) or DMSO as control. 48 h post-treatment, cell viability was determined using the CellTiter-Glo luminescent cell viability assay (Promega).
# [2] = tested on: U87 glioblastoma cell line; assay: Cell viability of U87 cells transfected with Rad18 siRNA and challenged with cisplatin; conditions: U87 cells co-transfected with siRNA and empty vector, increasing cisplatin, CellTiter-Glo; rescued by re-expression of Rad18
# From the text: (E) Survival curves of U87 glioblastoma cells co-transfected with empty vector and non-specific siRNA (siLuc+EV), or Rad18-specific siRNA and empty vector (siRad18+EV) and rescued by co-transfection with Rad18 (siRad18+Rad18), challenged with the indicated doses of cisplatin (CisPt) normalized to non-treated cells (mock). Means and standard deviations are shown (n=3).
# U87 cells were co-transfected either with siRNA Rad18 (GAG GAU UCU UCU AGC UGU A; SEQ ID NO:3) or siRNA Luciferase (Luc) as a control and an empty vector (pcDNA3) or Rad18 expressing vector using JETPrime reagent (Polyplus). Twenty-four hours after transfection, cells were trypsinized and seeded in 12 wells plates at a density of 10 000 cells/well. Twenty-four hours later cells were treated with increasing concentration of cisplatin (Sigma).
# Cells were plated at 1×10^4 per well in twelve-well plates and UV-irradiated or exposed to the indicated amount of cisplatin (CisPt, Sigma). 48 hours after irradiation, cell viability was determined using the CellTiter-Glo® Luminescent Cell Viability assay (Promega).
# [3] = tested on: Gb4 glioblastoma cancer stem cells; assay: Proliferation of gliospheres after Rad18 siRNA treatment; conditions: 72 hours post-treatment, absence of external damage, versus control siRNA (siLuc)
# Description: FIG. 6. Rad18 downregulation affects the proliferation of glioblastoma cancer stem cells in the absence of external damage. (A) Western blot of Gb4 glioblastoma cancer stem cells extracts treated with control siRNA (siLuc, lane 1), or a Rad18-specific siRNA (siRad18, lane 2) analysed 72 hours post-treatment. Extracts were probed with anti-Rad18 or anti-PCNA antibodies. (B) Phase contrast microscopy images of gliospheres treated with control siRNA or Rad18-specific siRNA 72 hours post-treatment. (C) Quantification of gliospheres proliferation upon downregulation of Rad18 expression expressed as number of cells. Glioblastoma cancer stem cells extracts were treated as described in panel A and cells were counted before (0 h) or 72 hours post-treatment (72 h).
# Glioblastoma cancer stem cells (Gliospheres, Gb4 and Gb7 cell lines) were isolated from patients as described in Clarion et al, 2014.
# Cells were maintained in DMEM-F12 (Lonza, Levallois-Perret, France) supplemented with B27 and N2 (Invitrogen, LifeTechnologies, Saint Aubin, France), 25 ng/ml of FGF-2 and EGF (Peprotech, Neuilly sur Seine, France) at 37° C. in 5% CO2 humidified incubators.
# Gb4 glioblastoma cancer stem cells extracts, treated with control siRNA or a Rad18-specific siRNA (SEQ ID NO:3) were analysed 72 hours post-treatment. […]
Compound,"sensitization of glioblastoma to cisplatin treatment (cell viability, % of DMSO control) [1]",sensitivity to cisplatin (cell viability) [2],proliferation of gliospheres (number of cells) [3]
CC(=O)c1cc([N+](=O)[O-])c(Sc2ccc(F)cc2F)s1 [P2207],sensitizes glioblastoma to cisplatin treatment,–,–
"GAG GAU UCU UCU AGC UGU A (GAGGAUUCUUCUAGCUGUA; listed as RNA, chemistry not given here) [Rad18-specific siRNA]",–,strong sensitivity to cisplatin,affect the proliferation of gliospheres
